Results from patent US10869929B2, “Phosphonate linkers and their use to facilitate cellular retention of compounds” (priority 2016, dated 2020).

Legend:
GILZ gene = GILZ gene assay (qPCR, HUT78 / 786-O cells); type: cell-based; details: for EC50: read-out: GILZ EC50
Procedure: GILZ gene assays were conducted as follows. HUT78 cells were cultured in IMEM plus 20% heat inactivated FBS and cell density was maintained between 0.1 to 1.2 million/mL. 786-O cells were cultured in RPMI plus 10% heat inactivated FBS. Actively growing cells were harvested and resuspended in HBSS with 2% FBS at 1.1 million cells per mL then dispensed to 384-well V-bottom plates at 45 μL per well. Serially diluted ADC solution was added to the cell plate (5 μL per well) and mixed for 2 min. Cells were then cultured at 37° C., at 5% CO2 for a designated time before supernatant was removed. Cells were harvested in lysis buffer from the Cells-to-Ct kit (40 μL, Life Technologies, 4391851C) following the supplier's protocol and mixed for 10 min followed by addition of 5 μL per well of stop solution from the kit. cDNA was synthesized with a reverse transcription kit (Life Technologies, 4391852C) follow by qPCR using the TaqMan gene expression master mix (Life Technologies, 4369016) with GILZ gene assay (Life Technologies, Hs00608272_m1) and GAPDH assay (Hs2758991_g1) in a duplex format with 3-4 technical replicates.

glucocorticoid receptor = glucocorticoid receptor (Homo sapiens (Human), UniProt P04150); assay: PolarScreen Glucocorticoid Receptor Competitor Assay (GR binding); details: fluormone GS red, GR full length protein; read-out: GR Bind IC50
Procedure: The potency of binding to glucocorticoid receptor by small molecule compounds was measured with the PolarScreen™ Glucocorticoid Receptor Competitor Assay Kit, Red (Life Technology, Catalog #A15898) according to the procedure in the kit. In brief, after compounds were diluted and transferred into assay plates, the fluormone GS red and GR full length protein were subsequently added into the assay plates, along with the positive and negative controls. The samples were mixed on a shaker for 1 minute and then the plates were incubated at room temperature for 2-4 hours with minimal light exposure. The plates were read with an Envision and the relative fluorescent signals were calculated. The data were plotted in GraphPad Prism and the EC50 values were calculated with non-linear regression curve fit of the data in GraphPad Prism.

MDCKII cells = assay: Apparent permeability in MDCKII cells; type: in vitro ADME; details: 1 μM, t=3 hr, average of A to B and B to A Papp
Procedure: Determination of apparent permeability was as follows. MDCKII cells (kindly provided by the Netherlands Cancer Institute, under a licensing agreement) were seeded on to 96-well transwell culture plates (Millipore Corp, Billerica, Mass.) and used in experiments after five days in culture. […] Substrate solution (150 μL) was added to either the apical (A) or the basolateral (B) compartment of the culture plate, and buffer (150 μL; HBSS, 10 mM HEPES, pH 7.4) with 10 μM cyclosporine A was added to the compartment opposite to that containing the substrate. At t=3 hr, 50 μL samples were removed from both sides of monolayers dosed with test compound and placed in 96 well plates, 50 μL internal standard (1 μM labetolol) and 100 μL HBSS was added to the samples. Samples were analyzed by LC/MS/MS using an Applied Biosystems SCIEX API 5000 triple quadruple mass spectrometer (Concord, ON, Canada) with a TurbolonSpray ion source in the positive ion mode. A Thermo Scientific Transcend LX-2 system (Franklin, Mass.) was coupled to the API 5000 with a flow rate of 800 μL/min to direct sample into the mass spectrometer.
Papp was expressed as 10^−6 cm/s.

ZBTB16 mRNA = assay: Up-regulation of ZBTB16 mRNA in primary human B cells; type: cell-based; details: for EC50: free payload
Procedure: The carrier solution for all ADCs and naked antibodies was 50 mM histidine pH 6.0, 100 mM NaCl and 5% trehelose. To assure consistency across experiments, ADCs were thawed on ice, dispensed to small aliquots, frozen to −80° C., and those aliquots were then used for experiments with unused material discarded at the end of the day. For all in vitro studies in this report, none of the read outs were measurably different in the presence or absence of the carrier solution. Nevertheless, the final concentration of antibody carrier solution was maintained constant at 1% v/v by serially diluting antibody solution prior to addition to the assay mixture and adding carrier solution to control wells.
For the studies of ADCs bearing reduced permeability payloads frozen human CD19+ B cells purchased from Precision Biosciences (catalog #84400, donor #13108) were thawed and re-suspended in RPMI1640 plus 10% heat-inactivated FBS (cell culture medium) at 1 million cells/mL. […] B cells were bulk treated in a 96-well block and subsequently dispensed to 96 well plates (100 μL and […] cells per well) and incubated at 37° C., 5% CO2 for 18 or 40 hr. Control wells containing equal percentages of DMSO (0.1%) and ADC buffer (1%) as sample wells were included. Cells were transferred to a 96 well v-bottom plate and spun at 500×g for 5 min. Medium was removed and cells were lysed in 150 μL RLT buffer containing beta-mercaptoethanol. RNA was isolated (RNeasy 96 kit, Qiagen, Cat #74181) and cDNA was synthesized (iScript cDNA Synthesis Kit, BioRad, Cat #170-8891) according to the supplier's protocol. Quantitative PCR was performed on Applied Biosystem's 7900 HT Real-Time PCR System to measure expression of ZBTB16 (Life Technologies, Hs00957433_m1) and GAPDH (Life Technologies, Hs02758991_g1) in duplex format.
The ΔΔCt method was used to calculate fold change of expression of ZBTB16 relative to control sample, using 3 replicates per treatment condition. For free cell impermeable compounds, B cells were seeded at 100,000 cells/well in 90 μL in a 96-well flat bottom plate. Three fold serial dilutions were performed in DMSO, subsequent intermediate 10× stocks were made in tissue-culture medium and then added to the cell plate (10 μL/well). Cells were incubated at 37° C., 5% CO2 for 18 hr, harvested and processed for PCR as described above. EC50 curves were calculated using Graph Pad Prism 6 software using nonlinear fit (agonist) vs. response-variable slope (four parameters) calculation.
Potency and maximum activity of reduced permeability glucocorticoids (free payload) and the corresponding anti-CD74-drug conjugates on up-regulation of ZBTB16 mRNA levels in primary human B cells in vitro.

Sequence of glucocorticoid receptor (P04150 whole entry): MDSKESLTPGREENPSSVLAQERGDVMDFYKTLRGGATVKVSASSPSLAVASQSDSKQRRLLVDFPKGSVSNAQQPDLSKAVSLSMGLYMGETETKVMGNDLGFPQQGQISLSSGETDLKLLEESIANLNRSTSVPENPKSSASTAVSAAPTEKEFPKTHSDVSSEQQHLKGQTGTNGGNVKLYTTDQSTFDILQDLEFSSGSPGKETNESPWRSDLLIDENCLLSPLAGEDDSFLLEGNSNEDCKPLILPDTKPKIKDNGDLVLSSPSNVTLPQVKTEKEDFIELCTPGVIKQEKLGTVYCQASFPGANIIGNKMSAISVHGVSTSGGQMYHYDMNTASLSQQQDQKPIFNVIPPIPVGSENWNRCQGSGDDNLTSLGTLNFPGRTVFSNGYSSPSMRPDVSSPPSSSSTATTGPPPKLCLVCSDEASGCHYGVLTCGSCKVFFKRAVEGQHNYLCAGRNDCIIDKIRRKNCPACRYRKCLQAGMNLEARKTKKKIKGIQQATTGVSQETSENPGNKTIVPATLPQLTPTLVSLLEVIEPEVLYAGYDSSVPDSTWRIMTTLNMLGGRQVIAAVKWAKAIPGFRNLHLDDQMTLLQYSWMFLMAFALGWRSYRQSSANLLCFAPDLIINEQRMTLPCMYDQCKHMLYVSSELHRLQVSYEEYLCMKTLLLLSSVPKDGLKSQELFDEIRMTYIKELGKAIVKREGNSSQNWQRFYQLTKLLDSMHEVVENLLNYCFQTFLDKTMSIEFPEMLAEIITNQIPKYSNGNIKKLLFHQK

## (6-(3-((3aR,4aS,4bS,11aR,11bS,12S,13aS,13bS)-12-hydroxy-13b-(2-hydroxyacetyl)-11a,13a-dimethyl-2-propyl-4,4a,5,6,11,11a,11b,12,13,13a-decahydro-[1,3]dioxolo[4″,5″:3′,4′]cyclopenta[1′,2′:5,6]naphtho[1,2-f]indazol-8 (3aH,4bH,13bH)-yl)phenoxy)hexyl)phosphonic acid [Compound 27]
GILZ gene; at 10 uM
  GILZ Max: 80% (at
GILZ gene
  EC50: 2760 nM

## CCCC1O[C@@H]2C[C@H]3[C@@H]4CCC5=Cc6c(cnn6-c6ccc(OCCCCP(=O)(O)O)cc6)C[C@]5(C)[C@H]4[C@@H](O)C[C@]3(C)[C@]2(C(=O)CO)O1 (stereo partly drawn) [Compound 30]
Glucocorticoid receptor
  IC50: 2.4 nM
GILZ gene; at 10 uM
  GILZ Max: 61% (at
GILZ gene
  EC50: 3010 nM
MDCKII cells
  MDCK Permeability (cm × 10−6/sec): 1.9 cm × 10−6/sec

## CCCC1O[C@@H]2C[C@H]3[C@@H]4CCC5=Cc6c(cnn6-c6cccc(OCCCCP(=O)(O)O)c6)C[C@]5(C)[C@H]4[C@@H](O)C[C@]3(C)[C@]2(C(=O)CO)O1 (stereo partly drawn) [Compound 28]
Glucocorticoid receptor
  IC50: 4.1 nM
GILZ gene; at 10 uM
  GILZ Max: 101% (at
GILZ gene
  EC50: 1270 nM
MDCKII cells
  MDCK Permeability (cm × 10−6/sec): 1.6 cm × 10−6/sec

## CCC(=O)O[C@]1(C(=O)SCCCP(=O)(O)O)[C@H](C)C[C@H]2[C@@H]3C[C@H](F)C4=CC(=O)C=C[C@]4(C)[C@@]3(F)[C@@H](O)C[C@@]21C [Compound 14]
Glucocorticoid receptor
  IC50: 18.1 nM
GILZ gene; at 10 uM
  GILZ Max: 15% (at
GILZ gene
  EC50: > 10000 nM

## C[C@@H]1C[C@H]2[C@@H]3C[C@H](F)C4=CC(=O)C=C[C@]4(C)[C@@]3(F)[C@@H](O)C[C@]2(C)[C@@]1(O)C(=O)SCCCCCCCCCCP(=O)(O)O [Compound 8]
Glucocorticoid receptor
  IC50: 0.25 nM
GILZ gene; at 10 uM
  GILZ Max: 66% (at
GILZ gene
  EC50: 970 nM
MDCKII cells
  MDCK Permeability (cm × 10−6/sec): 2.8 cm × 10−6/sec

## C[C@@H]1C[C@H]2[C@@H]3C[C@H](F)C4=CC(=O)C=C[C@]4(C)[C@@]3(F)[C@@H](O)C[C@]2(C)[C@@]1(OC(=O)CCCCCCCCP(=O)(O)O)C(=O)SCF [Compound 18, (9-(((6S,8S,9R,10S,11S,13S,14S,16R,17R)-6,9-difluoro-17-(((fluoromethyl)thio)carbonyl)-11-hydroxy-10,13,16-trimethyl-3-oxo-6,7,8,9,10,11,12,13,14,15,16,17-dodecahydro-3H-cyclopenta[a]phenanthren-17-yl)oxy)-9-oxononyl)phosphonic acid]
Glucocorticoid receptor
  IC50: 0.1 nM
GILZ gene; at 10 uM
  GILZ Max: 65% (at
GILZ gene
  EC50: 3040 nM
MDCKII cells
  MDCK Permeability (cm × 10−6/sec): <0.9 cm × 10−6/sec
ZBTB16 mRNA
  ZBTB16 mRNA Max relative to free fluticasone: >77%
ZBTB16 mRNA; B-cell
  EC50: 3200 nM

## CCCC1O[C@@H]2C[C@H]3[C@@H]4CCC5=Cc6c(cnn6-c6ccc(OCCCCCCCCCP(=O)(O)O)cc6)C[C@]5(C)[C@H]4[C@@H](O)C[C@]3(C)[C@]2(C(=O)CO)O1 (stereo partly drawn) [Compound 32]
Glucocorticoid receptor
  IC50: 115 nM
GILZ gene; at 10 uM
  GILZ Max: 86% (at
GILZ gene
  EC50: 4150 nM

## CCCC1O[C@@H]2C[C@H]3[C@@H]4CCC5=CC(=O)C=C[C@]5(C)[C@H]4[C@@H](O)C[C@]3(C)[C@]2(C(=O)CO)O1 (stereo partly drawn) [Budesonide, reference compound]
GILZ gene; concentration not given
  GILZ Max: 100%
GILZ gene
  EC50: 1 nM
MDCKII cells
  MDCK Permeability (cm × 10−6/sec): 31.6 cm × 10−6/sec

## CCC(=O)O[C@]1(C(=O)SCCCCCCP(=O)(O)O)[C@H](C)C[C@H]2[C@@H]3C[C@H](F)C4=CC(=O)C=C[C@]4(C)[C@@]3(F)[C@@H](O)C[C@@]21C [Compound 7]
Glucocorticoid receptor
  IC50: 0.45 nM
GILZ gene; at 10 uM
  GILZ Max: 64% (at
GILZ gene
  EC50: 6450 nM
MDCKII cells
  MDCK Permeability (cm × 10−6/sec): 2 cm × 10−6/sec

## C[C@@H]1C[C@H]2[C@@H]3C[C@H](F)C4=CC(=O)C=C[C@]4(C)[C@@]3(F)[C@@H](O)C[C@]2(C)[C@@]1(O)C(=O)SCCP(=O)(O)O [Compound 11]
GILZ gene; at 10 uM
  GILZ Max: 81% (at
GILZ gene
  EC50: 2860 nM

## C[C@@H]1C[C@H]2[C@@H]3C[C@H](F)C4=CC(=O)C=C[C@]4(C)[C@@]3(F)[C@@H](O)C[C@]2(C)[C@@]1(O)C(=O)SCCCCCCP(=O)(O)O [Compound 10]
Glucocorticoid receptor
  IC50: 1.99 nM
GILZ gene; at 10 uM
  GILZ Max: 17.3%
GILZ gene
  EC50: > 10000 nM
MDCKII cells
  MDCK Permeability (cm × 10−6/sec): 1.9 cm × 10−6/sec

## C[C@@H]1C[C@H]2[C@@H]3C[C@H](F)C4=CC(=O)C=C[C@]4(C)[C@@]3(F)[C@@H](O)C[C@]2(C)[C@@]1(OC(=O)CCCCCP(=O)(O)O)C(=O)SCF [Compound 19, (6-(((6S,8S,9R,10S,11S,13S,14S,16R,17R)-6,9-difluoro-17-(((fluoromethyl)thio)carbonyl)-11-hydroxy-10,13,16-trimethyl-3-oxo-6,7,8,9,10,11,12,13,14,15,16,17-dodecahydro-3H-cyclopenta[a]phenanthren-17-yl)oxy)-6-oxohexyl)phosphonic acid]
Glucocorticoid receptor
  IC50: 0.14 nM
GILZ gene; at 10 uM
  GILZ Max: 88% (at
GILZ gene
  EC50: 1290 nM

## CCC(=O)O[C@]1(C(=O)SCCOCCOCCP(=O)(O)O)[C@H](C)C[C@H]2[C@@H]3C[C@H](F)C4=CC(=O)C=C[C@]4(C)[C@@]3(F)[C@@H](O)C[C@@]21C [Compound 6]
Glucocorticoid receptor
  IC50: 0.32 nM
GILZ gene; at 10 uM
  GILZ Max: 40% (at
GILZ gene
  EC50: > 10000 nM

## C[C@@H]1C[C@H]2[C@@H]3C[C@H](F)C4=CC(=O)C=C[C@]4(C)[C@@]3(F)[C@@H](O)C[C@]2(C)[C@@]1(O)C(=O)SCCCCP(=O)(O)O [Compound 5]
Glucocorticoid receptor
  IC50: 160 nM
GILZ gene; at 100 nM
  GILZ Max: 24% (at
GILZ gene
  EC50: > 10000 nM
MDCKII cells
  MDCK Permeability (cm × 10−6/sec): 1.84 cm × 10−6/sec

## CCC(=O)O[C@]1(C(=O)SCCP(=O)(O)O)[C@H](C)C[C@H]2[C@@H]3C[C@H](F)C4=CC(=O)C=C[C@]4(C)[C@@]3(F)[C@@H](O)C[C@@]21C [Compound 12]
Glucocorticoid receptor
  IC50: 162 nM
GILZ gene; at 10 uM
  GILZ Max: 36% (at
GILZ gene
  EC50: 6780 nM

## CCC(=O)O[C@]1(C(=O)SCF)[C@H](C)C[C@H]2[C@@H]3C[C@H](F)C4=CC(=O)C=C[C@]4(C)[C@@]3(F)[C@@H](O)C[C@@]21C [Fluticasone Propionate, reference compound]
GILZ gene; concentration not given
  GILZ Max: 100%
GILZ gene
  EC50: 0.2 nM
MDCKII cells
  MDCK Permeability (cm × 10−6/sec): 21.5 cm × 10−6/sec
ZBTB16 mRNA
  EC50: 0.019 nM

## CCCC1O[C@@H]2C[C@H]3[C@@H]4CCC5=Cc6c(cnn6-c6cccc(OCCCCCCCCCP(=O)(O)O)c6)C[C@]5(C)[C@H]4[C@@H](O)C[C@]3(C)[C@]2(C(=O)CO)O1 (stereo partly drawn) [Compound 29]
Glucocorticoid receptor
  IC50: 24.2 nM
GILZ gene; at 10 uM
  GILZ Max: 96% (at
GILZ gene
  EC50: 558 nM

## C[C@@H]1C[C@H]2[C@@H]3C[C@H](F)C4=CC(=O)C=C[C@]4(C)[C@@]3(F)[C@@H](O)C[C@]2(C)[C@@]1(O)C(=O)SCCOCCOCCP(=O)(O)O [Compound 9]
Glucocorticoid receptor
  IC50: 1.67 nM
GILZ gene; at 10 uM
  GILZ Max: 14.5%
GILZ gene
  EC50: > 10000 nM

## CCC(=O)O[C@]1(C(=O)SCCCCP(=O)(O)O)[C@H](C)C[C@H]2[C@@H]3C[C@H](F)C4=CC(=O)C=C[C@]4(C)[C@@]3(F)[C@@H](O)C[C@@]21C [Compound 4]
Glucocorticoid receptor
  IC50: 0.71 nM
GILZ gene; at 100 nM
  GILZ Max: <10% (at
GILZ gene
  EC50: > 100 nM
MDCKII cells
  MDCK Permeability (cm × 10−6/sec): 1.72 cm × 10−6/sec

## CCCC1O[C@@H]2C[C@H]3[C@@H]4CCC5=Cc6c(cnn6-c6ccc(OCCCCCCP(=O)(O)O)cc6)C[C@]5(C)[C@H]4[C@@H](O)C[C@]3(C)[C@]2(C(=O)CO)O1 (stereo partly drawn) [Compound 31]
Glucocorticoid receptor
  IC50: 3.9 nM
GILZ gene; at 10 uM
  GILZ Max: 47% (at
GILZ gene
  EC50: 4180 nM
MDCKII cells
  MDCK Permeability (cm × 10−6/sec): 4.1 cm × 10−6/sec

## C[C@@H]1C[C@H]2[C@@H]3CCC4=CC(=O)C=C[C@]4(C)[C@@]3(F)[C@@H](O)C[C@]2(C)[C@@]1(O)C(=O)CO [Dexamethasone, reference compound]
GILZ gene; concentration not given
  GILZ Max: 100%
GILZ gene
  EC50: 3.7 nM

## C[C@@H]1C[C@H]2[C@@H]3C[C@H](F)C4=CC(=O)C=C[C@]4(C)[C@@]3(F)[C@@H](O)C[C@]2(C)[C@@]1(O)C(=O)SCCCP(=O)(O)O [Compound 13]
Glucocorticoid receptor
  IC50: 1220 nM
GILZ gene; at 10 uM
  GILZ Max: 24% (at
GILZ gene
  EC50: > 10000 nM
